Holding throughout (format): cell-based
Common to all, as to settings: fluorescent calcium assay

One assay has as its target TRPML1 (Homo sapiens, UniProt Q9GZU1). Put plainly: Fluorescent TRPML1 assay (Fluo4-AM calcium fluorescence in doxycycline-induced HEK-293 Trex cells). In short, it runs like this: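 First, expression of surface-targeted mutant human TRPML1 is induced in HEK-293 Trex cells with 0.5 ug/mL doxycycline the day before. Next, cells take up 1 micromolar Fluo4-AM in Ringer's with 0.1% Pluronic. Finally, they are added to compounds (6 nanomolar–20 micromolar final) in 10 mM calcium Ringer's and fluorescence is read.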

A further assay has as its target T1, TRPML3 (Homo sapiens, UniProt Q8TDD5).
T1 construct: expressed in transfected cells
T1 sequence (Q8TDD5 1-553): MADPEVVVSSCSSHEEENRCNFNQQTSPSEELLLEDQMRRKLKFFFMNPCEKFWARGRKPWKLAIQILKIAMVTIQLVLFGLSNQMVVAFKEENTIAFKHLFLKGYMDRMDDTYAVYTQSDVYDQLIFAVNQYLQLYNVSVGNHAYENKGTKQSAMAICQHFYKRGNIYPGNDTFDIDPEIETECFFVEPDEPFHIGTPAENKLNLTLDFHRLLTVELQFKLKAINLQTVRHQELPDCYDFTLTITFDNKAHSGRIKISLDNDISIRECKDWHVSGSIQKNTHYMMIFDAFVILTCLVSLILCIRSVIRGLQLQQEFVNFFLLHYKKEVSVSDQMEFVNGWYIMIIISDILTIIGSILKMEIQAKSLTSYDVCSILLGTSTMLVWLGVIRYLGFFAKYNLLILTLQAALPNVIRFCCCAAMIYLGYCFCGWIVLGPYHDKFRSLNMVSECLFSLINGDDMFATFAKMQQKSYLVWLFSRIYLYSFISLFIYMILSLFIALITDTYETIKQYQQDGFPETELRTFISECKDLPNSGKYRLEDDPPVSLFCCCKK
The assay can be described thus: Fluorescent TRPML3 assay (performed as for TRPML1, substituting the TRPML3 subtype). The method in brief:
(§1)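 Calcium-influx readout: Fluo4 fluorescence at 480/540 nm, normalised to positive and negative controls per plate, EC50 fitted by non-linear regression. Cells were HEK-293 Trex stable lines, channel expression induced overnight with 0.5 ug/mL doxycycline; tested at 20 micromolar down to 6 nanomolar final, half-log steps, triplicate.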

In a further assay the target is T2, TRPML2 (Homo sapiens, UniProt Q8IZK6).
T2 construct: expressed in transfected cells
T2 sequence (Q8IZK6 1-566): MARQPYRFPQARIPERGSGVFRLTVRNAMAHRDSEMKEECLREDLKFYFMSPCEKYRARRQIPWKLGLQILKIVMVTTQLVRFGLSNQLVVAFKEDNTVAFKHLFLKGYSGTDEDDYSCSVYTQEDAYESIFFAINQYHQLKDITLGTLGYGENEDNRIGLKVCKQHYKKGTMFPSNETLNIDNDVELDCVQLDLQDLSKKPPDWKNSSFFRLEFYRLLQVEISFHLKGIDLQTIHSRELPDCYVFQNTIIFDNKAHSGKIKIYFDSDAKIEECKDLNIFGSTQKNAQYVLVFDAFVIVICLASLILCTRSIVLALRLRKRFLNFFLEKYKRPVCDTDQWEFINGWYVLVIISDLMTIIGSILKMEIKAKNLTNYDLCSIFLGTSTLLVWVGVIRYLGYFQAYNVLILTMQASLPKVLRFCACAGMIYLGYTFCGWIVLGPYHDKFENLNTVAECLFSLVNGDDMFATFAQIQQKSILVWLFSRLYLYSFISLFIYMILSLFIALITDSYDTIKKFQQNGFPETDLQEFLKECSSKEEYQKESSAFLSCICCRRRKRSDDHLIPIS
Put plainly: Fluorescent TRPML2 assay (performed as for TRPML1, substituting the TRPML2 subtype). The method in brief:
as §1

Molecules are shown by their SMILES.

Chain of TRPML1 (Q9GZU1 whole entry L15A/L16A/L577A/L578A, form open): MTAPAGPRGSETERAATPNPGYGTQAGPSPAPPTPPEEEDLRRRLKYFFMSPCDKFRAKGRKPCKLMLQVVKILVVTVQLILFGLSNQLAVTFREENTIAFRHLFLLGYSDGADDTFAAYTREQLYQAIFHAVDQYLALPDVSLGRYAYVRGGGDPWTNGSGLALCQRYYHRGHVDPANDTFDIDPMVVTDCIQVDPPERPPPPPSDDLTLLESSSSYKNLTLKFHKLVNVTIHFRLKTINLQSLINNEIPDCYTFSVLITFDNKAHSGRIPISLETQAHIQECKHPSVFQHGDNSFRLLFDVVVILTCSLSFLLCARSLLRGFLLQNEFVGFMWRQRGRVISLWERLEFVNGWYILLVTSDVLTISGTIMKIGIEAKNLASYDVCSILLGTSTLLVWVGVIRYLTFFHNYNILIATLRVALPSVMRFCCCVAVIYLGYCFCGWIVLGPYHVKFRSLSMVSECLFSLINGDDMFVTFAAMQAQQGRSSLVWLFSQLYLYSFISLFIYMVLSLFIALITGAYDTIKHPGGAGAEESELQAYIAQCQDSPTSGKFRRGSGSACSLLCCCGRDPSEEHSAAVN

Turning to `C[C@H]1CN(C(=O)OC(C)(C)C)CCN1c1nccc2c1c(-c1ccccc1F)cn2-c1cc(C#N)ccn1` [Compound 449, tert-butyl (S)-4-(1-(4-cyanopyridin-2-yl)-3-(2-fluorophenyl)-1H-pyrrolo[3,2-c]pyridin-4-yl)-3-methylpiperazine-1-carboxylate], the figures for the half-maximal effective concentration (EC50) at TRPML1, on TRPML3 and at TRPML2 were under 0.1 µM, under 0.1 µM and 0.1 to 0.5 µM, respectively.

Regarding `C[C@H]1CN(C(=O)OC(C)(C)C)CCN1c1ncnc2c1c(-c1ccccc1F)cn2-c1ccnnc1` [Compound 451, tert-butyl (S)-4-(5-(2-fluorophenyl)-7-(pyridazin-4-yl)-7H-pyrrolo[2,3-d]pyrimidin-4-yl)-3-methylpiperazine-1-carboxylate], the EC50 on TRPML1 was 0.1 to 0.5 µM; at TRPML3 it was 0.1 to 0.5 µM; at TRPML2 it was over 2 µM.

With `C[C@@H]1CN(c2ncnc3c2c(-c2ccccc2F)cn3-c2cc(F)ccn2)[C@@H](C)CN1C(=O)OC(C)(C)C` [Compound 452, tert-butyl (2R,5S)-4-(5-(2-fluorophenyl)-7-(4-fluoropyridin-2-yl)-7H-pyrrolo[2,3-d]pyrimidin-4-yl)-2,5-dimethylpiperazine-1-carboxylate], the figures for the concentration for a half-maximal effect (EC50) on TRPML1, at TRPML3 and on TRPML2 were under 0.1 µM, under 0.1 µM and 0.1 to 0.5 µM, respectively.

For the compound `C[C@H]1CN(C(=O)OC(C)(C)C)CCN1c1ncnc2c1c(C1CC1)cn2-c1cc(F)ccn1` [Compound 453, tert-butyl (S)-4-(5-cyclopropyl-7-(4-fluoropyridin-2-yl)-7H-pyrrolo[2,3-d]pyrimidin-4-yl)-3-methylpiperazine-1-carboxylate], the EC50 at TRPML1 was under 0.1 µM; on TRPML3 it was under 0.1 µM; on TRPML2 it was 0.1 to 0.5 µM.

`C[C@@H]1CN(c2ncnc3c2c(-c2ccccc2F)cn3-c2cc(Cl)ccn2)[C@@H](C)CN1C(=O)OC(C)(C)C` [Compound 454, tert-butyl (2R,5S)-4-(7-(4-chloropyridin-2-yl)-5-(2-fluorophenyl)-7H-pyrrolo[2,3-d]pyrimidin-4-yl)-2,5-dimethylpiperazine-1-carboxylate]: the EC50 on TRPML1, on TRPML3 and on TRPML2 was under 0.1 µM throughout.

Consider `CC(C)(C)OC(=O)N1CCN(c2ncnc3c2c(-c2ccccc2F)cn3-c2ncc(C#N)s2)CC1` [Compound 455, tert-butyl 4-(7-(5-cyanothiazol-2-yl)-5-(2-fluorophenyl)-7H-pyrrolo[2,3-d]pyrimidin-4-yl)piperazine-1-carboxylate], for which the EC50 was under 0.1 µM at TRPML1, under 0.1 µM at TRPML3 and 0.1 to 0.5 µM on TRPML2.

In the case of `C[C@H]1CN(C(=O)OC(C)(C)C)CCN1c1ncnc2c1c(C1CC1)cn2-c1ccc(C#N)n1C` [Compound 456, tert-butyl (S)-4-(7-(5-cyano-1-methyl-1H-pyrrol-2-yl)-5-cyclopropyl-7H-pyrrolo[2,3-d]pyrimidin-4-yl)-3-methylpiperazine-1-carboxylate], the EC50 on TRPML1 was in the range of 0.5 to 2 µM; at TRPML3, 0.1 to 0.5 µM; at TRPML2 it was 0.5 to 2 µM.

For `C[C@H]1CN(C(=O)OC(C)(C)C)CCN1c1ncnc2c1c(C1CC1)cn2-c1cc(Cl)ccn1` [Compound 457, tert-butyl(S)-4-(7-(4-chloropyridin-2-yl)-5-cyclopropyl-7H-pyrrolo[2,3-d]pyrimidin-4-yl)-3-methylpiperazine-1-carboxylate], the EC50 at TRPML1, at TRPML3 and on TRPML2 was under 0.1 µM in each case.

As to `Cc1nccnc1-c1cn(-c2cc(C#N)ccn2)c2ncnc(N3C[C@@H](C)N(C(=O)OC(C)(C)C)C[C@@H]3C)c12` [Compound 458, tert-butyl (2R,5S)-4-(7-(4-cyanopyridin-2-yl)-5-(3-methylpyrazin-2-yl)-7H-pyrrolo[2,3-d]pyrimidin-4-yl)-2,5-dimethylpiperazine-1-carboxylate], the concentration for a half-maximal effect (EC50) at TRPML1 was under 0.1 µM; at TRPML3, 0.1 to 0.5 µM; at TRPML2 it was 0.1 to 0.5 µM.

Regarding `C[C@@H]1CN(c2ncnc3c2c(-c2ccccc2F)cn3-c2nccc(C#N)n2)[C@@H](C)CN1C(=O)OC(C)(C)C` [Compound 460, tert-butyl (2R,5S)-4-(7-(4-cyanopyrimidin-2-yl)-5-(2-fluorophenyl)-7H-pyrrolo[2,3-d]pyrimidin-4-yl)-2,5-dimethylpiperazine-1-carboxylate], the EC50 was under 0.1 µM at TRPML1, under 0.1 µM at TRPML3 and 0.1 to 0.5 µM at TRPML2.

For `Cc1nccnc1-c1cn(-c2cccc(Cl)c2)c2ncnc(N3C[C@@H](C)N(C(=O)OC(C)(C)C)C[C@@H]3C)c12` [Compound 461, tert-butyl (2R,5S)-4-(7-(3-chlorophenyl)-5-(3-methylpyrazin-2-yl)-7H-pyrrolo[2,3-d]pyrimidin-4-yl)-2,5-dimethylpiperazine-1-carboxylate], the results for the half-maximal effective concentration (EC50) on TRPML1, on TRPML3 and on TRPML2 were under 0.1 µM, under 0.1 µM and 0.1 to 0.5 µM, respectively.

As to `Cc1nccnc1-c1cn(-c2cc(F)cc(F)c2)c2ncnc(N3C[C@@H](C)N(C(=O)OC(C)(C)C)C[C@@H]3C)c12` [Compound 462, tert-butyl (2R,5S)-4-(7-(3,5-difluorophenyl)-5-(3-methylpyrazin-2-yl)-7H-pyrrolo[2,3-d]pyrimidin-4-yl)-2,5-dimethylpiperazine-1-carboxylate], the EC50 is under 0.1 µM at TRPML1, under 0.1 µM on TRPML3 and 0.1 to 0.5 µM on TRPML2.

As for `Cc1nc(-n2cc(-c3ccccc3F)c3c(N4CCN(C(=O)OC(C)(C)C)C[C@@H]4C)ncnc32)sc1C#N` [Compound 463, tert-butyl (S)-4-(7-(5-cyano-4-methylthiazol-2-yl)-5-(2-fluorophenyl)-7H-pyrrolo[2,3-d]pyrimidin-4-yl)-3-methylpiperazine-1-carboxylate], the EC50 at TRPML1, on TRPML3 and on TRPML2 was under 0.1 µM in each case.

Consider `CC(C)(C)OC(=O)N1CCN(c2ncnc3c2c(C2CCOCC2)cn3-c2cccc(Cl)c2)CC1` [Compound 465, tert-butyl 4-(7-(3-chlorophenyl)-5-(tetrahydro-2H-pyran-4-yl)-7H-pyrrolo[2,3-d]pyrimidin-4-yl)piperazine-1-carboxylate], for which the concentration giving a half-maximal response (EC50) on TRPML1 was 0.1 to 0.5 µM; at TRPML3, under 0.1 µM; at TRPML2, 0.5 to 2 µM.

For `CC1CN(C(=O)OC(C)(C)C)CCN1c1ncnc2c1c(C1CCOCC1)cn2-c1cccc(Cl)c1` (stereo not drawn) [Compound 466, tert-butyl 4-(7-(3-chlorophenyl)-5-(tetrahydro-2H-pyran-4-yl)-7H-pyrrolo[2,3-d]pyrimidin-4-yl)-3-methylpiperazine-1-carboxylate], the EC50 on TRPML1 is under 0.1 µM; at TRPML3 it was under 0.1 µM; on TRPML2, 0.5 to 2 µM.

Consider `C[C@H]1CN(C(=O)OC(C)(C)C)CCN1c1ncnc2c1c(C1CCOCC1)cn2-c1cc(F)cc(F)c1` [Compound 468, tert-butyl (S)-4-(7-(3,5-difluorophenyl)-5-(tetrahydro-2H-pyran-4-yl)-7H-pyrrolo[2,3-d]pyrimidin-4-yl)-3-methylpiperazine-1-carboxylate], for which the results for the concentration for a half-maximal effect (EC50) at TRPML1, on TRPML3 and on TRPML2 were 0.1 to 0.5 µM, 0.1 to 0.5 µM and over 2 µM, respectively.

Consider `C[C@@H]1CN(C(=O)OC(C)(C)C)CCN1c1ncnc2c1c(C1CCOCC1)cn2-c1cccc(F)c1` [Compound 469, tert-butyl (R)-4-(7-(3-fluorophenyl)-5-(tetrahydro-2H-pyran-4-yl)-7H-pyrrolo[2,3-d]pyrimidin-4-yl)-3-methylpiperazine-1-carboxylate], for which the EC50 on TRPML1 was 0.1 to 0.5 µM; on TRPML3, 0.1 to 0.5 µM; at TRPML2, 0.5 to 2 µM.

For `C[C@@H]1CN(C(=O)OC(C)(C)C)CCN1c1ncnc2c1c(C1=CCOCC1)cn2-c1cccc(F)c1` [Compound 471, tert-butyl (R)-4-(5-(3,6-dihydro-2H-pyran-4-yl)-7-(3-fluorophenyl)-7H-pyrrolo[2,3-d]pyrimidin-4-yl)-3-methylpiperazine-1-carboxylate], the figures for the concentration for a half-maximal effect (EC50) at TRPML1, at TRPML3 and on TRPML2 were 0.5 to 2 µM, 0.1 to 0.5 µM and 0.5 to 2 µM, respectively.
